Laboratory results taken from ChEMBL document CHEMBL1201862, “PubChem BioAssay data set” (2004).
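96-well plates; 48 h exposure; 5 concentrations. Endpoints by linear interpolation between flanking doses. Not reached: highest tested concentration assigned. At the GI50, growth is halved.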 Active and inactive are the calls of the source. No stated cut-off is given here; in the data, active = GI50 up to about 1.1 µM and inactive = higher.

How the values were obtained:
Assay in all cases: growth of human tumour cells (NCI), 48 h
LOX IMVI = test system: LOX IMVI
MDA-MB-435 = test system: MDA-MB-435
NCI-H226 = test system: NCI-H226
SNB-19 = test system: SNB-19
SK-OV-3 = test system: SK-OV-3
SN12C = test system: SN12C
MDA-N = test system: MDA-N
HT-29 = test system: HT-29
Hs-578T = test system: Hs-578T
SF-268 = test system: SF-268
EKVX = test system: EKVX
M14 = test system: M14
U-251 = test system: U-251
COLO 205 = test system: COLO 205
HL-60 = test system: HL-60
HOP-92 = test system: HOP-92
SK-MEL-5 = test system: SK-MEL-5
UO-31 = test system: UO-31
PC-3 = test system: PC-3
T47D = test system: T47D
A549 = test system: A549
DU-145 = test system: DU-145
UACC-62 = test system: UACC-62
OVCAR-4 = test system: OVCAR-4
OVCAR-8 = test system: OVCAR-8
NCI/ADR-RES = test system: NCI/ADR-RES
SR = test system: SR
BT-549 = test system: BT-549
MOLT-4 = test system: MOLT-4
NCI-H23 = test system: NCI-H23
IGROV-1 = test system: IGROV-1
SF-539 = test system: SF-539
OVCAR-5 = test system: OVCAR-5
SK-MEL-28 = test system: SK-MEL-28
HOP-62 = test system: HOP-62
HCT-15 = test system: HCT-15
CCRF-CEM = test system: CCRF-CEM
SF-295 = test system: SF-295
MCF7 = test system: MCF7
SK-MEL-2 = test system: SK-MEL-2
786-0 = test system: 786-0
UACC-257 = test system: UACC-257
ACHN = test system: ACHN
SW-620 = test system: SW-620
NCI-H522 = test system: NCI-H522
MDA-MB-231 = test system: MDA-MB-231
OVCAR-3 = test system: OVCAR-3
TK-10 = test system: TK-10
HCT-116 = test system: HCT-116
CAKI-1 = test system: CAKI-1
RXF 393 = test system: RXF 393
A498 = test system: A498
HCC 2998 = test system: HCC 2998
K562 = test system: K562
SNB-75 = test system: SNB-75
Malme-3M = test system: Malme-3M
KM12 = test system: KM12
NCI-H460 = test system: NCI-H460
RPMI-8226 = test system: RPMI-8226

With S=C(Nc1ccc2c(c1)oc1ccccc12)c1cccs1 the GI50 (LOX IMVI) was 7.73 µM (inactive), the GI50 (MDA-MB-435) was > 100 µM (inactive) and the GI50 (NCI-H226) was > 100 µM (inactive). The GI50 (SNB-19) was 38.1 µM (inactive), the GI50 (SK-OV-3) was 37.9 µM (inactive) and the GI50 (SN12C) was > 100 µM (inactive). The GI50 (MDA-N) was > 100 µM (inactive), the GI50 (HT-29) was 3.66 µM (inactive) and the GI50 (Hs-578T) was 29.8 µM (inactive). The GI50 (SF-268) was 38.1 µM (inactive), the GI50 (EKVX) was 38.5 µM (inactive) and the GI50 (M14) was > 100 µM (inactive). For the same molecule, the GI50 (U-251) was 30.5 µM (inactive), the GI50 (COLO 205) was > 100 µM (inactive) and the GI50 (HL-60) was > 100 µM (inactive). For the same molecule, the GI50 (HOP-92) was 53.5 µM (inactive), the GI50 (SK-MEL-5) was > 100 µM (inactive) and the GI50 (UO-31) was > 100 µM (inactive). The GI50 (PC-3) was > 100 µM (inactive), the GI50 (T47D) was 3.37 µM (inactive) and the GI50 (A549) was 66.7 µM (inactive). For the same molecule, the GI50 (DU-145) was 40.8 µM (inactive), the GI50 (UACC-62) was 82.8 µM (inactive) and the GI50 (OVCAR-4) was 30.6 µM (inactive). For the same molecule, the GI50 (OVCAR-8) was 18.7 µM (inactive), the GI50 (NCI/ADR-RES) was > 100 µM (inactive) and the GI50 (SR) was 4.25 µM (inactive). For the same molecule, the GI50 (BT-549) was 39.9 µM (inactive), the GI50 (MOLT-4) was > 100 µM (inactive) and the GI50 (NCI-H23) was > 100 µM (inactive). For the same molecule, the GI50 (IGROV-1) was 37.1 µM (inactive), the GI50 (SF-539) was 26.2 µM (inactive) and the GI50 (OVCAR-5) was > 100 µM (inactive). For the same molecule, the GI50 (SK-MEL-28) was > 100 µM (inactive), the GI50 (HOP-62) was 25.4 µM (inactive) and the GI50 (HCT-15) was greater than 100 µM. For the same molecule, the GI50 (CCRF-CEM) was > 100 µM (inactive), the GI50 (SF-295) was 16.6 µM (inactive) and the GI50 (MCF7) was 24.1 µM (inactive). For the same molecule, the GI50 (SK-MEL-2) was > 100 µM (inactive), the GI50 (786-0) was 11.3 µM (inactive) and the GI50 (UACC-257) was > 100 µM (inactive). The GI50 (ACHN) was > 100 µM (inactive), the GI50 (SW-620) was > 100 µM (inactive) and the GI50 (NCI-H522) was 20.8 µM (inactive). For the same molecule, the GI50 (MDA-MB-231) was 21.7 µM (inactive), the GI50 (OVCAR-3) was 23 µM (inactive) and the GI50 (TK-10) was > 100 µM (inactive). The GI50 (HCT-116) was > 100 µM (inactive), the GI50 (CAKI-1) was 52.8 µM (inactive) and the GI50 (RXF 393) was 27.9 µM (inactive). For the same molecule, the GI50 (A498) was > 100 µM (inactive) and the GI50 (HCC 2998) was > 100 µM (inactive).

For N/C(=N/c1ccc(O)cc1)S(=O)(=O)O, the GI50 (LOX IMVI) was > 100 µM (inactive), the GI50 (MDA-MB-435) was > 100 µM (inactive) and the GI50 (NCI-H226) was > 100 µM (inactive). For the same molecule, the GI50 (SNB-19) was > 100 µM (inactive), the GI50 (SK-OV-3) was > 100 µM (inactive) and the GI50 (SN12C) was > 100 µM (inactive). The GI50 (K562) was > 100 µM (inactive), the GI50 (MDA-N) was > 100 µM (inactive) and the GI50 (HT-29) was > 100 µM (inactive). For the same molecule, the GI50 (Hs-578T) was > 100 µM (inactive), the GI50 (SF-268) was > 100 µM (inactive) and the GI50 (EKVX) was > 100 µM (inactive). The GI50 (M14) was > 100 µM (inactive), the GI50 (U-251) was > 100 µM (inactive) and the GI50 (COLO 205) was > 100 µM (inactive). For the same molecule, the GI50 (HL-60) was > 100 µM (inactive), the GI50 (HOP-92) was > 100 µM (inactive) and the GI50 (SK-MEL-5) was > 100 µM (inactive). The GI50 (UO-31) was > 100 µM (inactive), the GI50 (PC-3) was > 100 µM (inactive) and the GI50 (T47D) was > 100 µM (inactive). The GI50 (A549) was > 100 µM (inactive), the GI50 (SNB-75) was > 100 µM (inactive) and the GI50 (Malme-3M) was > 100 µM (inactive). For the same molecule, the GI50 (DU-145) was > 100 µM (inactive), the GI50 (KM12) was > 100 µM (inactive) and the GI50 (UACC-62) was > 100 µM (inactive). For the same molecule, the GI50 (OVCAR-4) was > 100 µM (inactive), the GI50 (OVCAR-8) was > 100 µM (inactive) and the GI50 (NCI/ADR-RES) was > 100 µM (inactive). The GI50 (SR) was > 100 µM (inactive), the GI50 (BT-549) was > 100 µM (inactive) and the GI50 (MOLT-4) was > 100 µM (inactive). For the same molecule, the GI50 (NCI-H23) was > 100 µM (inactive), the GI50 (IGROV-1) was > 100 µM (inactive) and the GI50 (SF-539) was > 100 µM (inactive). For the same molecule, the GI50 (OVCAR-5) was > 100 µM (inactive), the GI50 (HOP-62) was > 100 µM (inactive) and the GI50 (HCT-15) was greater than 100 µM. For the same molecule, the GI50 (NCI-H460) was > 100 µM (inactive), the GI50 (CCRF-CEM) was > 100 µM (inactive) and the GI50 (SF-295) was > 100 µM (inactive). For the same molecule, the GI50 (MCF7) was > 100 µM (inactive), the GI50 (SK-MEL-2) was > 100 µM (inactive) and the GI50 (786-0) was > 100 µM (inactive). For the same molecule, the GI50 (UACC-257) was > 100 µM (inactive), the GI50 (ACHN) was > 100 µM (inactive) and the GI50 (SW-620) was > 100 µM (inactive). For the same molecule, the GI50 (NCI-H522) was > 100 µM (inactive), the GI50 (MDA-MB-231) was > 100 µM (inactive) and the GI50 (OVCAR-3) was > 100 µM (inactive). The GI50 (TK-10) was > 100 µM (inactive), the GI50 (HCT-116) was > 100 µM (inactive) and the GI50 (CAKI-1) was > 100 µM (inactive). The GI50 (RXF 393) was > 100 µM (inactive), the GI50 (A498) was > 100 µM (inactive) and the GI50 (HCC 2998) was > 100 µM (inactive).

With O=P(O)(O)CCP(=O)(O)O the GI50 (LOX IMVI) was > 100 µM (inactive), the GI50 (MDA-MB-435) was > 100 µM (inactive) and the GI50 (SNB-19) was > 100 µM (inactive). The GI50 (SK-OV-3) was > 100 µM (inactive), the GI50 (SN12C) was > 100 µM (inactive) and the GI50 (K562) was > 100 µM (inactive). The GI50 (MDA-N) was > 100 µM (inactive), the GI50 (HT-29) was > 100 µM (inactive) and the GI50 (Hs-578T) was > 100 µM (inactive). For the same molecule, the GI50 (SF-268) was > 100 µM (inactive), the GI50 (EKVX) was > 100 µM (inactive) and the GI50 (M14) was > 100 µM (inactive). For the same molecule, the GI50 (U-251) was > 100 µM (inactive), the GI50 (COLO 205) was > 100 µM (inactive) and the GI50 (HL-60) was 61.1 µM (inactive). The GI50 (HOP-92) was > 100 µM (inactive), the GI50 (SK-MEL-5) was > 100 µM (inactive) and the GI50 (UO-31) was > 100 µM (inactive). The GI50 (PC-3) was > 100 µM (inactive), the GI50 (T47D) was > 100 µM (inactive) and the GI50 (A549) was > 100 µM (inactive). For the same molecule, the GI50 (Malme-3M) was > 100 µM (inactive), the GI50 (DU-145) was > 100 µM (inactive) and the GI50 (KM12) was > 100 µM (inactive). The GI50 (UACC-62) was > 100 µM (inactive), the GI50 (OVCAR-4) was > 100 µM (inactive) and the GI50 (OVCAR-8) was > 100 µM (inactive). The GI50 (NCI/ADR-RES) was > 100 µM (inactive), the GI50 (SR) was > 100 µM (inactive) and the GI50 (BT-549) was > 100 µM (inactive). For the same molecule, the GI50 (MOLT-4) was > 100 µM (inactive), the GI50 (NCI-H23) was > 100 µM (inactive) and the GI50 (IGROV-1) was > 100 µM (inactive). For the same molecule, the GI50 (SF-539) was > 100 µM (inactive), the GI50 (OVCAR-5) was > 100 µM (inactive) and the GI50 (SK-MEL-28) was > 100 µM (inactive). For the same molecule, the GI50 (HOP-62) was > 100 µM (inactive), the GI50 (HCT-15) was greater than 100 µM and the GI50 (NCI-H460) was > 100 µM (inactive). The GI50 (RPMI-8226) was > 100 µM (inactive), the GI50 (CCRF-CEM) was > 100 µM (inactive) and the GI50 (SF-295) was > 100 µM (inactive). For the same molecule, the GI50 (MCF7) was > 100 µM (inactive), the GI50 (SK-MEL-2) was > 100 µM (inactive) and the GI50 (786-0) was > 100 µM (inactive). The GI50 (UACC-257) was 5.62 µM (inactive), the GI50 (ACHN) was > 100 µM (inactive) and the GI50 (SW-620) was > 100 µM (inactive). For the same molecule, the GI50 (NCI-H522) was > 100 µM (inactive), the GI50 (MDA-MB-231) was > 100 µM (inactive) and the GI50 (OVCAR-3) was > 100 µM (inactive). The GI50 (TK-10) was > 100 µM (inactive), the GI50 (HCT-116) was > 100 µM (inactive) and the GI50 (CAKI-1) was > 100 µM (inactive). For the same molecule, the GI50 (RXF 393) was > 100 µM (inactive) and the GI50 (A498) was > 100 µM (inactive).
